Experimental data: ChEMBL document CHEMBL1201862, “PubChem BioAssay data set” (2004)
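Each compound was tested at five concentrations against cells in 96-well plates for 48 hours. Here, GI50 denotes the concentration required for 50% inhibition of growth.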 The source made the active and inactive calls. Cut-off read from the data, not from the text of the source: active = GI50 up to about 1.1 µM and inactive = higher.

Columns and labels:
Experiment in all cases: DTP human tumour cell line panel, 48 h
[1] = tested on: K562
[2] = tested on: U-251
[3] = tested on: A549
[4] = tested on: HCC 2998
[5] = tested on: NCI-H226
[6] = tested on: Hs-578T
[7] = tested on: ACHN
[8] = tested on: NCI-H522
[9] = tested on: OVCAR-8
[10] = tested on: SF-295
[11] = tested on: HOP-62
[12] = tested on: OVCAR-5
[13] = tested on: SK-MEL-2
[14] = tested on: MOLT-4
[15] = tested on: LOX IMVI
[16] = tested on: CAKI-1
[17] = tested on: OVCAR-3
[18] = tested on: TK-10
[19] = tested on: HOP-92
[20] = tested on: MDA-MB-231
[21] = tested on: UACC-62
[22] = tested on: KM12
[23] = tested on: RXF 393
[24] = tested on: RPMI-8226
[25] = tested on: Malme-3M
[26] = tested on: MDA-N
[27] = tested on: SF-539
[28] = tested on: SR
[29] = tested on: A498
[30] = tested on: BT-549
[31] = tested on: HCT-15
[32] = tested on: NCI-H460
[33] = tested on: HL-60
[34] = tested on: CCRF-CEM
[35] = tested on: MDA-MB-435
[36] = tested on: SK-OV-3
[37] = tested on: PC-3
[38] = tested on: HCT-116
[39] = tested on: HT-29
[40] = tested on: MCF7
[41] = tested on: SN12C
[42] = tested on: UACC-257
[43] = tested on: OVCAR-4
[44] = tested on: NCI/ADR-RES
[45] = tested on: NCI-H23
[46] = tested on: SW-620
[47] = tested on: SNB-19
[48] = tested on: EKVX
[49] = tested on: 786-0
[50] = tested on: DU-145
[51] = tested on: SK-MEL-28
[52] = tested on: T47D
[53] = tested on: IGROV-1
[54] = tested on: SNB-75
[55] = tested on: UO-31
[56] = tested on: COLO 205
[57] = tested on: SF-268
[58] = tested on: M14
[59] = tested on: SK-MEL-5

Structure (SMILES): COc1ccc(-c2c3c(cc4cc5c(cc24)OCO5)C(=O)OC3)cc1OC
- GI50 [1]: 0.69 µM (active)
- GI50 [2]: 4.67 µM (inactive)
- GI50 [3]: 1.44 µM (inactive)
- GI50 [4]: 2.99 µM (inactive)
- GI50 [5]: 0.34 µM (active)
- GI50 [6]: 6.22 µM (inactive)
- GI50 [7]: 1.37 µM (inactive)
- GI50 [8]: 0.392 µM (active)
- GI50 [9]: 0.24 µM (active)
- GI50 [10]: 0.239 µM (active)
- GI50 [11]: 0.313 µM (active)
- GI50 [12]: 9.55 µM (inactive)
- GI50 [13]: 1.83 µM (inactive)
- GI50 [14]: 3.62 µM (inactive)
- GI50 [15]: 0.0164 µM (active)
- GI50 [16]: 0.571 µM (active)
- GI50 [17]: 0.885 µM (active)
- GI50 [18]: 42.2 µM (inactive)
- GI50 [19]: 0.771 µM (active)
- GI50 [20]: 3.02 µM (inactive)
- GI50 [21]: 0.507 µM (active)
- GI50 [22]: 1.77 µM (inactive)
- GI50 [23]: 2.9 µM (inactive)
- GI50 [24]: 0.0447 µM (active)
- GI50 [25]: 0.51 µM (active)
- GI50 [26]: 2.01 µM (inactive)
- GI50 [27]: 3.5 µM (inactive)
- GI50 [28]: 0.0299 µM (active)
- GI50 [29]: 20.4 µM (inactive)
- GI50 [30]: 0.51 µM (active)
- GI50 [31]: 0.635 µM
- GI50 [32]: 0.222 µM (active)
- GI50 [33]: 0.271 µM (active)
- GI50 [34]: 4.06 µM (inactive)
- GI50 [35]: 2.43 µM (inactive)
- GI50 [36]: 13.4 µM (inactive)
- GI50 [37]: 4.01 µM (inactive)
- GI50 [38]: 0.466 µM (active)
- GI50 [39]: 0.215 µM (active)
- GI50 [40]: 4.13 µM (inactive)
- GI50 [41]: 0.488 µM (active)
- GI50 [42]: 2.07 µM (inactive)
- GI50 [43]: 2.47 µM (inactive)
- GI50 [44]: 0.132 µM (active)
- GI50 [45]: 6.98 µM (inactive)
- GI50 [46]: 2.19 µM (inactive)
- GI50 [47]: 16.1 µM (inactive)
- GI50 [48]: 1.96 µM (inactive)
- GI50 [49]: 2.12 µM (inactive)
- GI50 [50]: 2.7 µM (inactive)
- GI50 [51]: 1.37 µM (inactive)
- GI50 [52]: 0.386 µM (active)
- GI50 [53]: 0.336 µM (active)
- GI50 [54]: 6.92 µM (inactive)
- GI50 [55]: 3.15 µM (inactive)
- GI50 [56]: 0.383 µM (active)
- GI50 [57]: 5.85 µM (inactive)
- GI50 [58]: 0.305 µM (active)
- GI50 [59]: 0.119 µM (active)

Structure (SMILES): COC(=O)[C@@H]1C[C@H]([Se]c2ccccc2)CN1C(=O)OCc1ccccc1
- GI50 [1]: 26.8 µM (inactive)
- GI50 [2]: 35.2 µM (inactive)
- GI50 [3]: 29.6 µM (inactive)
- GI50 [4]: 87.9 µM (inactive)
- GI50 [5]: 32.7 µM (inactive)
- GI50 [6]: 64.9 µM (inactive)
- GI50 [7]: 28.1 µM (inactive)
- GI50 [8]: 46.2 µM (inactive)
- GI50 [9]: 45.3 µM (inactive)
- GI50 [10]: 35.3 µM (inactive)
- GI50 [11]: 98.6 µM (inactive)
- GI50 [12]: > 100 µM (inactive)
- GI50 [13]: 19.5 µM (inactive)
- GI50 [14]: 22 µM (inactive)
- GI50 [15]: 12.6 µM (inactive)
- GI50 [16]: 36 µM (inactive)
- GI50 [17]: 24 µM (inactive)
- GI50 [18]: 53.5 µM (inactive)
- GI50 [19]: 33.7 µM (inactive)
- GI50 [20]: 48.9 µM (inactive)
- GI50 [21]: 15.1 µM (inactive)
- GI50 [22]: 30.8 µM (inactive)
- GI50 [23]: 20.2 µM (inactive)
- GI50 [24]: 24.8 µM (inactive)
- GI50 [25]: 26.2 µM (inactive)
- GI50 [26]: 19.2 µM (inactive)
- GI50 [27]: 39.8 µM (inactive)
- GI50 [28]: 26.1 µM (inactive)
- GI50 [29]: 31.2 µM (inactive)
- GI50 [30]: 22.9 µM (inactive)
- GI50 [31]: 30.5 µM
- GI50 [32]: 24.8 µM (inactive)
- GI50 [33]: 22.6 µM (inactive)
- GI50 [34]: 34.1 µM (inactive)
- GI50 [35]: 24.3 µM (inactive)
- GI50 [36]: > 100 µM (inactive)
- GI50 [37]: 30.3 µM (inactive)
- GI50 [38]: 34.1 µM (inactive)
- GI50 [39]: 26 µM (inactive)
- GI50 [40]: 20 µM (inactive)
- GI50 [41]: 45.5 µM (inactive)
- GI50 [42]: 31.4 µM (inactive)
- GI50 [43]: 24.8 µM (inactive)
- GI50 [44]: 39.2 µM (inactive)
- GI50 [45]: 20.4 µM (inactive)
- GI50 [46]: 52.6 µM (inactive)
- GI50 [47]: 62.7 µM (inactive)
- GI50 [48]: 39.2 µM (inactive)
- GI50 [49]: 41.7 µM (inactive)
- GI50 [50]: 47.2 µM (inactive)
- GI50 [51]: 24 µM (inactive)
- GI50 [52]: 16 µM (inactive)
- GI50 [53]: 50.6 µM (inactive)
- GI50 [54]: 63.4 µM (inactive)
- GI50 [55]: 24.4 µM (inactive)
- GI50 [56]: 23.4 µM (inactive)
- GI50 [57]: 47.5 µM (inactive)
- GI50 [58]: 29.8 µM (inactive)
- GI50 [59]: 16.9 µM (inactive)

Structure (SMILES): O=c1ccc2ccc(S)cc2o1
- GI50 [2]: > 100 µM (inactive)
- GI50 [3]: > 100 µM (inactive)
- GI50 [4]: > 100 µM (inactive)
- GI50 [5]: > 100 µM (inactive)
- GI50 [6]: > 100 µM (inactive)
- GI50 [7]: > 100 µM (inactive)
- GI50 [8]: 87.3 µM (inactive)
- GI50 [9]: > 100 µM (inactive)
- GI50 [10]: > 100 µM (inactive)
- GI50 [11]: > 100 µM (inactive)
- GI50 [12]: > 100 µM (inactive)
- GI50 [13]: > 100 µM (inactive)
- GI50 [14]: 42 µM (inactive)
- GI50 [15]: > 100 µM (inactive)
- GI50 [16]: > 100 µM (inactive)
- GI50 [17]: > 100 µM (inactive)
- GI50 [18]: 92.5 µM (inactive)
- GI50 [19]: > 100 µM (inactive)
- GI50 [20]: > 100 µM (inactive)
- GI50 [21]: > 100 µM (inactive)
- GI50 [22]: > 100 µM (inactive)
- GI50 [23]: > 100 µM (inactive)
- GI50 [24]: 99.8 µM (inactive)
- GI50 [25]: > 100 µM (inactive)
- GI50 [26]: > 100 µM (inactive)
- GI50 [27]: > 100 µM (inactive)
- GI50 [28]: > 100 µM (inactive)
- GI50 [29]: > 100 µM (inactive)
- GI50 [30]: > 100 µM (inactive)
- GI50 [31]: > 100 µM
- GI50 [32]: > 100 µM (inactive)
- GI50 [33]: > 100 µM (inactive)
- GI50 [35]: > 100 µM (inactive)
- GI50 [36]: > 100 µM (inactive)
- GI50 [37]: > 100 µM (inactive)
- GI50 [38]: > 100 µM (inactive)
- GI50 [39]: > 100 µM (inactive)
- GI50 [40]: > 100 µM (inactive)
- GI50 [41]: > 100 µM (inactive)
- GI50 [42]: > 100 µM (inactive)
- GI50 [43]: > 100 µM (inactive)
- GI50 [44]: > 100 µM (inactive)
- GI50 [45]: > 100 µM (inactive)
- GI50 [46]: > 100 µM (inactive)
- GI50 [47]: > 100 µM (inactive)
- GI50 [48]: > 100 µM (inactive)
- GI50 [49]: > 100 µM (inactive)
- GI50 [50]: > 100 µM (inactive)
- GI50 [51]: > 100 µM (inactive)
- GI50 [52]: > 100 µM (inactive)
- GI50 [53]: > 100 µM (inactive)
- GI50 [54]: > 100 µM (inactive)
- GI50 [55]: > 100 µM (inactive)
- GI50 [56]: > 100 µM (inactive)
- GI50 [57]: > 100 µM (inactive)
- GI50 [58]: > 100 µM (inactive)
- GI50 [59]: > 100 µM (inactive)
